From patent publication US20260007599A1, “TICAGRELOR IV FORMULATIONS FOR USE IN THE TREATMENT OF GRAM-POSITIVE BACTEREMIA” (Hyloris Developments SA, priority 2023, published 2026)

Tests used:
[1] = Impact of ticagrelor particle size on dissolution; assay type: physicochemical
Protocol: In a further example the impact of particle size on solubility was tested. Two different particle size diameters for the ticagrelor active ingredient were screened, 5.5 and 15 micrometers. The pH and osmolality were not affected.

[2] = Impact of packaging material on stability, 40° C./75% RH; assay type: physicochemical; set-up: Assay: unit not given here; conditions: for Acetal impurity / Amine impurity / Assay / Description / Regiomer / Sum impurities >0.05 / Total (impurity) / Triol impurity / pH: HPβCD 32.5% w/w, 5 mM pH 7.5 phosphate buffer, 40° C./75% RH
Protocol: To study the potential impact of the packaging material on the stability of the ticagrelor-cyclodextrin inclusion complex, a composition with 32.5% w/w HPβCD was prepared with procedures and precaution's similar to previous trials; samples were stored in transparent clear glass vials and amber colored glass vials at a temperature of 40° C./75% RH.

[3] = Maximum solubility of ticagrelor in HPβCD solution without heat; assay type: physicochemical; conditions: without the use of heat
Text: In a further example, the maximum solubility of ticagrelor in an HPβCD solution, without the use of heat, was investigated.

[4] = test system: vancomycin-resistant E. Faecalis (VRE); conditions: ex-vivo; cited from earlier work
[5] = Storage stability of Example 14 aqueous ticagrelor solutions; assay type: physicochemical; conditions: 5-15 mg/ml ticagrelor, 20-40% w/w HPβCD; 40° C. and 75% Relative Humidity
Protocol: Aqueous ticagrelor solutions for intravenous administration were prepared with the following composition: • 5-15 mg/ml Ticagrelor • 20-40% w/w HPβCD • Q·S to 1 ml Acetate or Phosphate Buffer pH 4.5 to 6.5 • pH solution: 6-8 • Osmolality solution: 350-900 mOsm/kg
Packaged in a glass vial, containing 5-15 ml aqueous ticagrelor solution.
Storage stability: at least 3 months at 40° C. and 75% Relative Humidity

[6] = Dilution of a concentrated ticagrelor vial (8 ml, 65 mg ticagrelor, about 3 g HPβCD); assay type: physicochemical
[7] = phosphate buffered solution at pH 7.4; after 1 month under normal laboratory conditions of light and temperature; cited from earlier work
[8] = particle distribution D90 5.5 μm, micronized
[9] = particle distribution D90 15 μm, unmicronized

CCCSc1nc(N[C@@H]2C[C@H]2c2ccc(F)c(F)c2)c2nnn([C@@H]3C[C@H](OCCO)[C@@H](O)[C@H]3O)c2n1 [ticagrelor, (1S,2S,3R,5S)-3-{7-[(1R,2S)-2-(3,4-difluorophenyl)cyclopropylamino]5-(propylthio)-3H-(1,2,3)triazolo (4,5-D)pyrimidin-3-yl}-5-(2 hydroxyethoxy) cyclopentane-1,2-diol]
Dissolution time [1, 8]: 33 min
Osmolality [1, 8]: 751 mOsm/kg
pH [1, 8]: 7.68
Dissolution time [1, 9]: 125 min
Osmolality [1, 9]: 753 mOsm/kg
pH [1, 9]: 7.70
difference between clear and amber glass vials ([2]; accelerated storage stability test, after 3 months): no significant difference
number of different impurities developed on storage ([2]; accelerated storage stability test, without the cyclodextrin): 6 to 8
Acetal impurity ([2]; amber glass vials, 1 M): 0.05%
Amine impurity ([2]; amber glass vials, 1 M): 0.04%
Assay ([2]; amber glass vials, 1 M): 100.24
Description ([2]; amber glass vials, 1 M): clear
Regiomer ([2]; amber glass vials, 1 M): 0.01%
Sum impurities >0.05 ([2]; amber glass vials, 1 M): 0.05%
Total (impurity) ([2]; amber glass vials, 1 M): 0.22%
Triol impurity ([2]; amber glass vials, 1 M): 0.02%
pH ([2]; amber glass vials, 1 M): 7.70
Acetal impurity ([2]; amber glass vials, 2 M): 0.04%
Amine impurity ([2]; amber glass vials, 2 M): 0.04%
Assay ([2]; amber glass vials, 2 M): 99.89
Description ([2]; amber glass vials, 2 M): clear
Regiomer ([2]; amber glass vials, 2 M): 0.02%
Sum impurities >0.05 ([2]; amber glass vials, 2 M): 0.00%
Total (impurity) ([2]; amber glass vials, 2 M): 0.28%
Triol impurity ([2]; amber glass vials, 2 M): 0.04%
pH ([2]; amber glass vials, 2 M): 7.69
Acetal impurity ([2]; amber glass vials, 3 M): 0.05%
Amine impurity ([2]; amber glass vials, 3 M): 0.06%
Assay ([2]; amber glass vials, 3 M): 98.93
Description ([2]; amber glass vials, 3 M): clear
Regiomer ([2]; amber glass vials, 3 M): 0.04%
Sum impurities >0.05 ([2]; amber glass vials, 3 M): 0.16%
Total (impurity) ([2]; amber glass vials, 3 M): 0.33%
Triol impurity ([2]; amber glass vials, 3 M): 0.05%
pH ([2]; amber glass vials, 3 M): 7.66
Acetal impurity ([2]; amber glass vials, T0): 0.05%
Amine impurity ([2]; amber glass vials, T0): 0.04%
Assay ([2]; amber glass vials, T0): 98.34
Description ([2]; amber glass vials, T0): clear
Regiomer ([2]; amber glass vials, T0): 0.00%
Sum impurities >0.05 ([2]; amber glass vials, T0): 0.18%
Total (impurity) ([2]; amber glass vials, T0): 0.40%
Triol impurity ([2]; amber glass vials, T0): 0.04%
pH ([2]; amber glass vials, T0): 7.66
Acetal impurity ([2]; clear glass vials, 1 M): 0.04%
Amine impurity ([2]; clear glass vials, 1 M): 0.04%
Assay ([2]; clear glass vials, 1 M): 101.71
Description ([2]; clear glass vials, 1 M): clear
Regiomer ([2]; clear glass vials, 1 M): 0.01%
Sum impurities >0.05 ([2]; clear glass vials, 1 M): 0.00%
Total (impurity) ([2]; clear glass vials, 1 M): 0.22%
Triol impurity ([2]; clear glass vials, 1 M): 0.03%
pH ([2]; clear glass vials, 1 M): 7.65
Acetal impurity ([2]; clear glass vials, 2 M): 0.04%
Amine impurity ([2]; clear glass vials, 2 M): 0.04%
Assay ([2]; clear glass vials, 2 M): 99.69
Description ([2]; clear glass vials, 2 M): clear
Regiomer ([2]; clear glass vials, 2 M): 0.02%
Sum impurities >0.05 ([2]; clear glass vials, 2 M): 0.05%
Total (impurity) ([2]; clear glass vials, 2 M): 0.28%
Triol impurity ([2]; clear glass vials, 2 M): 0.05%
pH ([2]; clear glass vials, 2 M): 7.63
Acetal impurity ([2]; clear glass vials, 3 M): 0.05%
Amine impurity ([2]; clear glass vials, 3 M): 0.06%
Assay ([2]; clear glass vials, 3 M): 98.25
Description ([2]; clear glass vials, 3 M): clear
Regiomer ([2]; clear glass vials, 3 M): 0.04%
Sum impurities >0.05 ([2]; clear glass vials, 3 M): 0.16%
Total (impurity) ([2]; clear glass vials, 3 M): 0.33%
Triol impurity ([2]; clear glass vials, 3 M): 0.05%
pH ([2]; clear glass vials, 3 M): 7.58
Acetal impurity ([2]; clear glass vials, T0): 0.05%
Amine impurity ([2]; clear glass vials, T0): 0.04%
Assay ([2]; clear glass vials, T0): 98.34
Description ([2]; clear glass vials, T0): clear
Regiomer ([2]; clear glass vials, T0): 0.00%
Sum impurities >0.05 ([2]; clear glass vials, T0): 0.22%
Total (impurity) ([2]; clear glass vials, T0): 0.40%
Triol impurity ([2]; clear glass vials, T0): 0.05%
pH ([2]; clear glass vials, T0): 7.65
Ticagrelor (maximum solubility in HPβCD solution) ([3]; HPβCD 30% w/w): 8000 µg/mL
Ticagrelor (maximum solubility in HPβCD solution) ([3]; HPβCD 33% w/w): 9000 µg/mL
minimal bactericidal concentration [4]: 20 microgram/ml
Storage stability [5]: at least 3 months
clear solution on dilution ([6]; 0,9 w/v % NaCl solution as diluent): not possible
appearance after dilution ([6]; diluted with 25 ml 5 w/v % dextrose, final volume 33 ml): clear solution
ticagrelor concentrations in solution [7]: declined
